Measured values taken from ChEMBL document CHEMBL3817759, “Novel drug design for Chagas disease via targeting Trypanosoma cruzi tubulin: Homology modeling and binding pocket prediction on Trypanosoma cruzi tubulin polymerization inhibition by naphthoquinone derivatives” (Bioorg Med Chem, 2016).

Tests used:
[1] = test system: Trypanosoma cruzi; test: Antitrypanosomal activity against epimastigote stage of Trypanosoma cruzi Tulahuen CL98 after 48 hrs by hemocytometry; type: functional, organism-based; details: Tulahuen CL98, 48 h
[2] = Inhibition of Trypanosoma cruzi tubulin polymerization incubated at room temperature for 15 mins followed by 5 mins at 4 degC in presence of GTP by photometric method

Row | SMILES | IC50 [1] | IC50 [2]
1 | O=C1C(Cl)=C(N(C(=O)c2cccc(Cl)c2)C(=O)c2cccc(Cl)c2)C(=O)c2ccccc21 | 2.23 µM | 8 µM
2 | CC1CS(=O)(=O)CCN1/N=C/c1ccc([N+](=O)[O-])o1 (stereo unspecified) [NIFURTIMOX] | 10.7 µM | 
3 | O=C1C(Cl)=C(N2C(=O)CCC2=O)C(=O)c2ccccc21 | 2.77 µM | 6 µM
4 | CCCC(=O)N(C(=O)CCC)C1=C(Cl)C(=O)c2ccccc2C1=O | 0.7 µM | 3.2 µM
5 | O=C1C(Cl)=C(N(C(=O)CCl)C(=O)CCl)C(=O)c2ccccc21 | 6.1 µM | > 40 µM
6 | O=C1C(Cl)=C(N2C(=O)c3ccccc3C2=O)C(=O)c2ccccc21 | 4.83 µM | 12 µM
